# Reference: paper PMC11904993, “Humanized Candida and NanoBiT Assays Expedite Discovery of Bdf1 Bromodomain Inhibitors With Antifungal Potential” (Advanced Science, 2025)
# Values joined by “and” are separate entries in the source; they are usually repeats but may differ in a detail not shown here. Equal entries are not always repeated.
# Tests used:
# Test in all cases: HTRF assay, inhibition of H4ac4 peptide binding
# [1] = molecular target: human Brd4 BD1 (Homo sapiens, UniProt O60885); conditions: for %HTRF Signal hBrd4 BD1: Fig 2E
# [2] = molecular target: T1, human Brd4 BD2 (Homo sapiens, UniProt O60885); conditions: for %HTRF Signal hBrd4 BD2: Fig 2E
# T1 construct: GST‐tagged BD2 (residues 349–460) from human Brd4 (UniProt ID O60885); purchased Reaction Biology Corp
# [3] = molecular target: C. auris Bdf1 BD2 (Candidozyma auris (Candida auris), UniProt A0AAW0VEM6)
# [4] = molecular target: T2, CaBdf1 BD2 (Candida albicans, UniProt Q5A4W8); design: species or system C. albicans; conditions: CaBD2, Exp1-2, read-out: Percent HTRF Signal
# T2 construct: BD1 (residues 193–327) and BD2 (residues 361–501) from CaBdf1 (Uniprot ID Q5A4W8); made in house; host or cells: E. coli BL21(DE3)
# T2 sequence (Q5A4W8 361-501): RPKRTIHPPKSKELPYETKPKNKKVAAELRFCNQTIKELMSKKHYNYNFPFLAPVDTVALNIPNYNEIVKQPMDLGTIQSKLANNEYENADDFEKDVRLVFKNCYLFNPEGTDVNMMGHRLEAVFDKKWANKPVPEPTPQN
# Chain of C. auris Bdf1 BD2 (A0AAW0VEM6 entry or part of it): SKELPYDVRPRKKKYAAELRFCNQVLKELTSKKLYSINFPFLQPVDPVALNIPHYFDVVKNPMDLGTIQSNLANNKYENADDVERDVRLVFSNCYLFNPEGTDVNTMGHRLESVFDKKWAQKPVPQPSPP
compound,measurement,setting,value
"Cc1ccc(-c2nnc(C)c(NCc3ccc(C)o3)n2)cc1 [Compound 24c, 6‐methyl‐N‐((5‐methylfuran‐2‐yl)methyl)‐3‐(p‐tolyl)‐1,2,4‐triazin‐5‐amine]",IC50,[1],> 20 µM
same,%HTRF Signal hBrd4 BD1,[1]; 0.002 microM,99.94% and 101.82% and 96.40%
same,%HTRF Signal hBrd4 BD1,[1]; 0.005 microM,98.75% and 96.86% and 103.69%
same,%HTRF Signal hBrd4 BD1,[1]; 0.013 microM,99.02% and 101.98% and 101.10%
same,%HTRF Signal hBrd4 BD1,[1]; 0.033 microM,102.19% and 101.25% and 104.58%
same,%HTRF Signal hBrd4 BD1,[1]; 0.082 microM,100.31% and 103.86% and 103.22%
same,%HTRF Signal hBrd4 BD1,[1]; 0.205 microM,99.94% and 102.50% and 103.66%
same,%HTRF Signal hBrd4 BD1,[1]; 0.512 microM,100.22% and 100.80% and 103.20%
same,%HTRF Signal hBrd4 BD1,[1]; 1.280 microM,99.57% and 100.99% and 103.81%
same,%HTRF Signal hBrd4 BD1,[1]; 3.200 microM,98.88% and 63.27% and 99.81%
same,%HTRF Signal hBrd4 BD1,[1]; 8.000 microM,95.80% and 101.11% and 96.69%
same,%HTRF Signal hBrd4 BD1,[1]; 20.000 microM,84.01% and 92.12% and 87.26%
same,IC50,[2],> 20 µM
same,%HTRF Signal hBrd4 BD2,[2]; 0.002 microM,101.87% and 97.60% and 95.93%
same,%HTRF Signal hBrd4 BD2,[2]; 0.005 microM,107.00% and 95.29% and 98.83%
same,%HTRF Signal hBrd4 BD2,[2]; 0.013 microM,110.74% and 98.44% and 97.06%
same,%HTRF Signal hBrd4 BD2,[2]; 0.033 microM,106.00% and 100.34% and 100.19%
same,%HTRF Signal hBrd4 BD2,[2]; 0.082 microM,114.59% and 102.11% and 105.40%
same,%HTRF Signal hBrd4 BD2,[2]; 0.205 microM,102.46% and 102.49% and 103.89%
same,%HTRF Signal hBrd4 BD2,[2]; 0.512 microM,110.69% and 102.99% and 100.42%
same,%HTRF Signal hBrd4 BD2,[2]; 1.280 microM,110.63% and 103.66% and 98.46%
same,%HTRF Signal hBrd4 BD2,[2]; 3.200 microM,107.03% and 99.12% and 95.88%
same,%HTRF Signal hBrd4 BD2,[2]; 8.000 microM,99.23% and 96.86% and 85.81%
same,%HTRF Signal hBrd4 BD2,[2]; 20.000 microM,80.43% and 88.19% and 83.66%
same,remaining activity at 0.0021 µM,"[3]; CauBD2, 24c 0.0021 microM, Exp1-3, read-out: Percent HTRF Signal",100%
same,remaining activity at 0.0052 µM,"[3]; CauBD2, 24c 0.0052 microM, Exp1-3, read-out: Percent HTRF Signal",94.4%
same,remaining activity at 0.013 µM,"[3]; CauBD2, 24c 0.013 microM, Exp1-3, read-out: Percent HTRF Signal",99.2%
same,remaining activity at 0.033 µM,"[3]; CauBD2, 24c 0.033 microM, Exp1-3, read-out: Percent HTRF Signal",100%
same,remaining activity at 0.082 µM,"[3]; CauBD2, 24c 0.082 microM, Exp1-3, read-out: Percent HTRF Signal",106%
same,remaining activity at 0.2 µM,"[3]; CauBD2, 24c 0.20 microM, Exp1-3, read-out: Percent HTRF Signal",105%
same,remaining activity at […],"[3]; CauBD2, 24c 0.51 microM, Exp1-3, read-out: Percent HTRF Signal",99.5%
same,remaining activity at 1.28 µM,"[3]; CauBD2, 24c 1.28 microM, Exp1-3, read-out: Percent HTRF Signal",100%
same,remaining activity at 3.2 µM,"[3]; CauBD2, 24c 3.20 microM, Exp1-3, read-out: Percent HTRF Signal",98.7%
same,remaining activity at 8 µM,"[3]; CauBD2, 24c 8.00 microM, Exp1-3, read-out: Percent HTRF Signal",84%
same,remaining activity at 20 µM,"[3]; CauBD2, 24c 20.00 microM, Exp1-3, read-out: Percent HTRF Signal",79.1%
same,inhibition of Bdf1 BD2 from C. auris,"[3]; HTRF, Fig S9C",weakly inhibited
same,remaining activity at 0.013 µM,[4]; 24c 0.013 microM,94.3%
same,remaining activity at 0.033 µM,[4]; 24c 0.033 microM,96.5%
same,remaining activity at 0.082 µM,[4]; 24c 0.082 microM,102%
same,remaining activity at 0.2 µM,[4]; 24c 0.20 microM,102%
same,remaining activity at […],[4]; 24c 0.51 microM,97.5%
same,remaining activity at 1.28 µM,[4]; 24c 1.28 microM,98.1%
same,remaining activity at 3.2 µM,[4]; 24c 3.20 microM,92.6%
same,remaining activity at 8 µM,[4]; 24c 8.00 microM,90.1%
